{"source": "patent US20200289450A1", "about": "“METHODS OF REDUCING OR PREVENTING OXIDATIVE MODIFICATION OF MEMBRANE POLYUNSATURATED FATTY ACIDS” (Amarin Pharmaceuticals Ireland Limited, priority 2013, published 2020)", "key": {"[1]": {"details": "cited from earlier work"}, "HMG-CoA reductase": {"target": "T1, HMG-CoA reductase (Homo sapiens, UniProt P04035)", "T1 sequence (P04035 1-888)": "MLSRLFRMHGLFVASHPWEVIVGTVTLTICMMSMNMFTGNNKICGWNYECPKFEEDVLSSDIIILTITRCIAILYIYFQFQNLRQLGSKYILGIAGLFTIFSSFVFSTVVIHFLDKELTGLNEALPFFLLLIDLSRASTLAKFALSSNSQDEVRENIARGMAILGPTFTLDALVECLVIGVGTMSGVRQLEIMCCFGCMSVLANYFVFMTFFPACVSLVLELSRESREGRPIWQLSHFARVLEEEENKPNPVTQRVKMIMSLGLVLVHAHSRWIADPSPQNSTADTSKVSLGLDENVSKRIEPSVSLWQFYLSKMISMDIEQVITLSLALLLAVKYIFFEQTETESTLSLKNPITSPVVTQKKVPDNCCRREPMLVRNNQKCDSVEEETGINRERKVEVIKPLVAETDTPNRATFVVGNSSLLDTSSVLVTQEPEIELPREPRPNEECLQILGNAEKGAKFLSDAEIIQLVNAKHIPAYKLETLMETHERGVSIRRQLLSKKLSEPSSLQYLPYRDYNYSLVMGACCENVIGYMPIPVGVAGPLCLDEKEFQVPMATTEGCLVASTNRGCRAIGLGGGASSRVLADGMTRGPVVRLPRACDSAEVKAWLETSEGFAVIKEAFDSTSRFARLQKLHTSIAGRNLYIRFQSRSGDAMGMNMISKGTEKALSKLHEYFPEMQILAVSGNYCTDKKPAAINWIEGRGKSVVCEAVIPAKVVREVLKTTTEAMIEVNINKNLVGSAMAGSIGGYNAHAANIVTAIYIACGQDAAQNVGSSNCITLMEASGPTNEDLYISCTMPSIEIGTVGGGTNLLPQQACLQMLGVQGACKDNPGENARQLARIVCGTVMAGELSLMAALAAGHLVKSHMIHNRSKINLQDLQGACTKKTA", "details": "metabolized by hepatic cytochrome P450; cited from earlier work"}, "[2]": {"test": "Glucose-induced membrane lipid peroxidation (LOOH), CHOD-iodide assay in MLVs (Example 4)", "protocol": "Vitamin E (α-tocopherol) was also purchased from Sigma-Aldrich and prepared in ethanol at 1.0 mM (ϵ=3.06×10^4 M^−1 cm^−1 at 294 nm) just prior to experimental use. […] All test compounds were further diluted in ethanol or aqueous buffer as needed. Glucose was prepared in saline buffer (0.5 mM HEPES, 154 mM NaCl, pH 7.3) at 11.0 mM (200 mg/dL). CHOD-iodide color reagent (stock) was prepared, with slight modification, as described by from El-Saadani et al. (J. […] Prior to experimental use, the CHOD reagent was activated by adding 24 μM ethylenediaminetetraacetic acid (EDTA), 20 μM butylated hydroxytoluene (BHT), and 0.2% Triton X-100. Multilamellar vesicles (MLVs) were prepared as binary mixtures of DLPC (1.0 or 2.5 mg total phospholipid per sample) and cholesterol at a fixed cholesterol-to-phospholipid (C/P) mole ratio of 0.6:1. […] Aliquot volume was reduced with each successive time point to ensure that spectrophotometric readings were within the optimal adsorption range. […] Sample absorbances were then measured against a CHOD blank at 365 nm using a Beckman DU-640 spectrophotometer. The CHOD colorimetric assay is based on the oxidation of iodide (I^−) by lipid hydroperoxide (LOOH) to form triiodide (I3^−), the quantity of which is directly proportional to the amount of LOOH present in the lipid sample. […]"}, "[3]": {"test_system": "human low density lipoprotein and model liposomes", "details": "cited from earlier work"}, "[4]": {"test": "Glucose- and peroxidation-induced cholesterol domain formation, small angle x-ray diffraction (Example 4)", "assay_type": "physicochemical", "protocol": "The membrane structural effects of glucose and the various compounds examined in this study were measured at 0, 72, and 96 hour intervals. Membrane lipid vesicles were oriented for x-ray diffraction analysis as described by others (e.g., Herbette et al., Biophys. J., vol. 20(2), pages 245-272 (1977)). Briefly, a 100 μL aliquot (containing 250 μg MLV) was aspirated from each sample and transferred to a Lucite® sedimentation cell fitted with an aluminum foil substrate upon which a given sample could be collected by centrifugation. Samples were then loaded into a Sorvall AH-629 swinging bucket rotor (DuPont Corp., Wilmington, Del.) and centrifuged at 35,000 g, 5° C., for 90 min.\nAfter centrifugal orientation, sample supernatants were aspirated and aluminum foil substrates, each supporting a single membrane pellet, were removed from the sedimentation cells. Sample pellets were dried for 5-10 min at ambient conditions, mounted onto curved glass supports, and placed in hermetically-sealed, brass or glass containers (for immediate analysis or temporary storage, respectively). All x-ray diffraction experiments were conducted at 20° C., 74% relative humidity. The latter was established by exposing membrane samples to saturated solutions of L-(+) […] (K2C4H4O6.½H2O). Samples were incubated at these conditions for at least 1 hour prior to experimental analysis.\nOriented membrane samples were aligned at grazing incidence with respect to a collimated, mono-chromatic CuKα x-ray beam (Kα1 and Kα2 unresolved; λ=1.54 Å) produced by a Rigaku Rotaflex RU-200, high-brilliance microfocus generator (Rigaku-MSC, The Woodlands, Tex.) as previously described (Mason et al, Biophys. J., vol. 55(4), pages 769-778 (1989)). […]\nThe d-space for any given membrane multibilayer is a measurement of the unit cell periodicity of the membrane lipid bilayer (e.g., the distance from the center of one lipid bilayer to the next including surface hydration), and is calculated from Bragg's Law, hλ=2dsinθ, where h is the diffraction order, λ is the wavelength of the x-ray radiation (1.54 Å), d is the membrane lipid bilayer unit cell periodicity, and θ is the Bragg angle equal to one-half the angle between the incident beam and scattered beam.\nThe presence of cholesterol domains in a given membrane sample results in the production of distinct Bragg (diffraction) peaks having singular periodicity values of 34 and 17 Å (typically referred to as first- and second-order cholesterol domain peaks). Under the specific temperature and relative humidity conditions established for these experiments, the second-order, 17 Å cholesterol domain peak was well-delineated from other, neighboring cholesterol and phospholipid diffraction peaks and was thus used to quantitate relative cholesterol domain peak intensity. […]"}, "[5]": {"test_system": "human LDL (unfractionated)", "test": "Copper-initiated oxidation of unfractionated LDL, TBARS (Example 6)", "details": "1.0 μM to 10.0 μM", "protocol": "(§1) An experiment to study the antioxidant effect of EPA in small dense LDL (“sdLDL”) was performed. EPA was purchased from Sigma-Aldrich (Saint Louis, Mo.) and solubilized in ethanol to 1 mM under nitrogen atmosphere. Vitamin E (α-tocopherol) was purchased from Sigma-Aldrich and prepared in ethanol at 1.0 mM (ϵ=3.06×10^4 M^−1 cm^−1 at 294 nm) just prior to experimental use. All test compounds were further diluted in ethanol or aqueous buffer as needed.\n(§2) Venous blood was collected from healthy volunteers into vacutainer tubes containing sodium EDTA. Plasma was separated by centrifugation at 3000 g for 25 min at 4° C. and adjusted to a density of 1.020 g/mL with KBr. […] Sample TBARS concentrations were determined spectrophotometrically by measuring sample absorbances against a standard curve derived from the hydrolysis of 1,1,3,3-tetramethoxypropane.\n(§3) Data are presented as mean±S.D. for (N) separate samples or treatment groups. Differences between groups were analyzed using the two-tailed, Student's t-test (for comparisons between only two groups) or ANOVA followed by Dunnett or Student-Newman-Keuls multiple comparisons post-hoc analysis (for comparisons between three or more groups). […]"}, "human sdLDL": {"test_system": "human sdLDL", "test": "Copper-initiated sdLDL oxidation, TBARS (Example 6)", "protocol": "as §1, §2, §3"}}, "data": [{"smiles": "CC(C)c1c(C(=O)Nc2ccccc2)c(-c2ccccc2)c(-c2ccc(F)cc2)n1CC[C@@H](O)C[C@@H](O)CC(=O)O", "note": "[atorvastatin]", "values": [{"measurement": "circulating levels of chlorotyrosine", "setting": "[1]; 10 mg, 12 weeks", "result": "significantly reduce"}, {"measurement": "circulating levels of dityrosine", "setting": "[1]; 10 mg, 12 weeks", "result": "significantly reduce"}, {"measurement": "circulating levels of nitrotyrosine", "setting": "[1]; 10 mg, 12 weeks", "result": "significantly reduce"}, {"measurement": "levels of oxidized lipids associated with all apoB100-containing lipid particles", "setting": "[1]; 80 mg, 16 weeks, 2,341 patients", "result": "significant reduction"}, {"measurement": "share of circulating HMG-CoA reductase inhibitory activity accounted for by active metabolites", "setting": "HMG-CoA reductase", "result": "approximately 70%"}]}, {"smiles": "CC(C)c1c(C(=O)Nc2ccccc2O)c(-c2ccccc2)c(-c2ccc(F)cc2)n1CC[C@@H](O)C[C@@H](O)CC(=O)O", "note": "[ATM, Atorvastatin ortho- (o-) hydroxy (active) metabolite]", "values": [{"measurement": "antioxidant effects (LOOH formation)", "setting": "[2]; each at 1.0 μM, glucose 200 mg/dL, 96 hours", "result": "separate and potent antioxidant effects"}, {"measurement": "antioxidant properties", "setting": "[3]", "result": "potent antioxidant properties"}]}, {"smiles": "Cc1c(C)c2c(c(C)c1O)CC[C@@](C)(CCC[C@H](C)CCC[C@H](C)CCCC(C)C)O2", "note": "[vitamin E, α-tocopherol]", "values": [{"measurement": "effect on membrane structure compared to control samples", "setting": "[4]; 0 hours (start of experiment), glucose 200 mg/dL, 1:30 drug-to-phospholipid mole ratio", "result": "no appreciable effect"}, {"measurement": "cholesterol crystalline domain peaks (d-space 34 Å)", "setting": "[4]; 72 hours oxidative conditions, glucose 200 mg/dL, 1:30", "result": "observed"}, {"measurement": "cholesterol domain peaks", "setting": "[4]; 96 hours oxidative conditions, glucose 200 mg/dL, 1:30", "result": "disproportionately greater"}, {"measurement": "effect on cholesterol domain formation compared to control", "setting": "[4]; any experimental time point (FIG. 5)", "result": "no significant effect"}, {"measurement": "LDL oxidation", "setting": "[5]", "result": "did not inhibit LDL oxidation at any concentration"}, {"measurement": "effect on LOOH formation / lipid peroxidation (FIG. 3)", "setting": "[2]; 72- and 96-hour time points, glucose, 1:30 drug-to-phospholipid mole ratio", "result": "no significant effect"}, {"measurement": "sdLDL oxidation", "setting": "human sdLDL; 1.0 μM to 10.0 μM", "result": "did not inhibit sdLDL oxidation except at the highest concentration"}, {"measurement": "reduction of TBARS levels compared to vehicle-treated controls", "setting": "human sdLDL; sdLDL, 10.0 μM, 2 hr after 10 μM CuSO4", "result": 26, "unit": "%"}]}]}
